In series [1] the test system is Mycobacterium tuberculosis. The experiment in a line: Antimycobacterial activity against Mycobacterium tuberculosis H37Rv ATCC 27294 assessed as inhibition of bacterial growth incubated for 7 days by broth dilution method. It is filed as functional. The conditions noted are these: H37Rv ATCC 27294, 168 h, time 7 day.
Series [2] relates to Mycobacterium tuberculosis. The experiment in a line: Myco-bactericidal activity against Mycobacterium tuberculosis H37Rv ATCC 27294 assessed as inhibition of bacterial colony formation incubated for 7 days by agar plate method. The series is classed as functional. The conditions noted are these: H37Rv ATCC 27294, 168 h, time 7 day, read-out: MBC99.9.
Series [3] is described as follows: Aqueous solubility of the compound in aqueous buffer at 100 uM incubated for 24 hrs under agitation condition by UV-Vis spectrophotometric analysis. It is filed as physicochemical.
Series [4] has as its system Mycolicibacterium smegmatis. The experiment in a line: Disruption of proton motive force in Mycobacterium smegmatis spheroplasts assessed as disruption of proton gradient by measuring acidification of intracellular spaces within spheroplasts at 2XMIC90 measured after 30 mins by BCECF-AM dye based fluorescence analysis. The series is classed as functional, organism-based.

The nature of series [5]: Effective permeability coefficient of the compound at 500 uM incubated for 18 hrs under agitation condition by PAMPA assay. It is filed as ADME. The conditions noted are these: for Papp at 18 h, 500 µM: PAMPA, read-out: Peff. (PAMPA measures passive passage across an artificial lipid membrane.)
Series [6] in a line: Cytotoxicity against African green monkey Vero E6 cells assessed as reduction in cell viability incubated for 48 hrs by MTS assay. The series is classed as toxicity, cell-based, Chlorocebus sabaeus, Vero C1008. (In general: Tetrazolium dyes change colour on reduction, which living cells bring about.)
Series [7] in a line: Selectivity index, ratio of IC50 for cytotoxicity against African green monkey Vero E6 cells to MIC50 for antimycobacterial activity against Mycobacterium tuberculosis H37Rv ATCC 27294. The series is classed as toxicity, cell-based, Vero C1008. As to conditions: read-out: Selectivity Index.
Series [8] can be described thus: Selectivity index, ratio of IC50 for cytotoxicity against African green monkey Vero E6 cells to MIC50 for antimycobacterial activity against Mycobacterium bovis BCG ATCC 35734. The series is classed as toxicity, cell-based, Vero C1008. The conditions noted are these: read-out: Selectivity Index.
A short description of series [9]: Half life in rat liver microsomes at 200 uM incubated for 5 mins followed by NADPH addition and measured for 45 mins by LC-MS/MS analysis. The series is classed as ADME, Microsome. The conditions noted are these: time 50 min. (In general: Liver microsomes are a subcellular fraction often used to study metabolism.)
The nature of series [10]: Ratio of MIC90 for antimycobacterial activity against Mycobacterium bovis BCG B16-1 harboring mmpL3 C1932G/F644L mutant to MIC90 for antimycobacterial activity against wild type Mycobacterium bovis BCG ATCC 35734. It is filed as functional.
Series [11] in a line: Ratio of MIC90 for antimycobacterial activity against Mycobacterium bovis BCG B16-2 harboring mmpL3 C1932A/F644L mutant to MIC90 for antimycobacterial activity against wild type Mycobacterium bovis BCG ATCC 35734. It is filed as functional.
The nature of series [12]: Ratio of MIC90 for antimycobacterial activity against Mycobacterium bovis BCG B33-1 harboring mmpL3 C1932G/F644L mutant to MIC90 for antimycobacterial activity against wild type Mycobacterium bovis BCG ATCC 35734. It is filed as functional.
Series [13] is described as follows: Ratio of MIC90 for antimycobacterial activity against Mycobacterium bovis BCG B33-2 harboring mmpL3 C765G/F255L mutant to MIC90 for antimycobacterial activity against wild type Mycobacterium bovis BCG ATCC 35734. The series is classed as functional.
The nature of series [14]: Ratio of MIC90 for antimycobacterial activity against Mycobacterium bovis BCG B47-1 harboring mmpL3 C1932G/F644L mutant to MIC90 for antimycobacterial activity against wild type Mycobacterium bovis BCG ATCC 35734. It is filed as functional.
Series [15] can be described thus: Ratio of MIC90 for antimycobacterial activity against Mycobacterium bovis BCG B47-2 harboring mmpL3 G2041A/V681I mutant to MIC90 for antimycobacterial activity against wild type Mycobacterium bovis BCG ATCC 35734. It is filed as functional.
Series [16] is described as follows: Ratio of MIC90 for antimycobacterial activity against Mycobacterium bovis BCG B47-3 harboring mmpL3 T1930C/F644L mutant to MIC90 for antimycobacterial activity against wild type Mycobacterium bovis BCG ATCC 35734. It is filed as functional.
Series [17] in a line: Ratio of MIC90 for antimycobacterial activity against Mycobacterium bovis BCG B47-4 harboring mmpL3 C1932G/F644L mutant to MIC90 for antimycobacterial activity against wild type Mycobacterium bovis BCG ATCC 35734. The series is classed as functional.
Series [18] concerns Mycolicibacterium smegmatis. Nature of the series: Disruption of proton motive force in Mycobacterium smegmatis spheroplasts assessed as disruption of proton gradient by measuring acidification of intracellular spaces within spheroplasts at 2 to 5 uM measured after 30 mins by BCECF-AM dye based fluorescence analysis. The series is classed as functional, organism-based. The conditions noted are these: dose 2-5 µM.

Structures are written as SMILES. In brackets after ≈: the same amount, converted by molar mass. Activity calls are given as the source filed them.

Turning to `NNC(=O)c1ccncc1` [ISONIAZID], in [1], the MIC50 – broadly, the lowest concentration that inhibits either 50% of growth or 50% of the strains tested, depending on the study – came to 1.8 µM (≈ 0.247 µg/mL) and the MIC90 (usually the lowest concentration that inhibits either 90% of growth or 90% of the strains tested, depending on the study) was 3.8 µM (≈ 0.521 µg/mL). Moreover, the MBC in [2] came to 3.2 µM (≈ 0.439 µg/mL).
As for `CC1(C)CCC(NC(=O)c2cc3c(Cl)cc(Cl)cc3[nH]2)CC1`, the MIC50 in [1] came to 0.015 µM (≈ 0.00509 µg/mL).
Take `O=C(NC1CCCCCCC1)c1cc2ccccc2s1`: the solubility (as a rule, how much of the substance goes into solution per volume) at 24 h, 100 µM in [3] was found to be 3.3 µM (≈ 0.949 µg/mL). Further, the outcome in series [4] was inactive.
The corresponding values for `c1ccc2[se]c(CNC3CCCCCCC3)cc2c1` are 77.8 µM (≈ 24.9 µg/mL) and “inactive”.
For `O=C(NC1C2CC3CC(C2)CC1C3)c1cc2cc(Cl)ccc2[nH]1` (stereo not given), the MIC90 in series [1] stood at 0.47 µM (≈ 0.155 µg/mL).
`O=C(NC1CCCCCCC1)c1cc2ccc(C(F)(F)F)cc2[nH]1` yielded a solubility at 24 h, 100 µM in series [3] of 2.2 µM (≈ 0.744 µg/mL). The Papp at 18 h, 500 µM in series [5] worked out at 0.34 ×10⁻⁶ cm/s. Further, the MIC50 in [1] came to 0.02 µM (≈ 0.00677 µg/mL). The MIC90 in series [1] came to 0.04 µM (≈ 0.0135 µg/mL). Besides, the MBC in series [2] stood at 0.08 µM (≈ 0.0271 µg/mL). Also, in series [6], the IC50 (in general, the midpoint of a concentration-inhibition curve) at 48 h is more than 100 µM. For the same compound, the selectivity ratio in series [7] and in [8] was more than 5000 in each case. In addition, in series [9], the half-life (in general, the time needed for the level to fall by half in the phase considered) at 200 µM came to 25.6 min. The Ratio in [10], in series [11], in [12], in [13], in series [14] and in [15] was 5 in each case. Further, the Ratio in series [16] and in series [17] was 5 throughout. For the same compound, the outcome in series [4] was inactive.
For the compound `CC1(C)CCC(NC(=O)c2cc3c(F)cc(F)cc3[nH]2)CC1`, in series [1], the MIC50 was 0.023 µM (≈ 0.00705 µg/mL).
The compound `Cc1cc(C)c2cc(C(=O)NC3CCCCCCC3)[nH]c2c1` showed a solubility at 24 h, 100 µM in [3] of 5.7 µM (≈ 1.7 µg/mL). For the same compound, the Peff in series [5] (pampa, 18 h, 500 µM) is listed as 14 10^-6 cm/s. In series [1], the MIC90 amounted to 0.013 µM (≈ 0.00388 µg/mL).
In turn, `O=C(NC1CCCCCCC1)c1cc2ccc(Br)cc2[nH]1` yielded a solubility at 24 h, 100 µM in [3] of 1.6 µM (≈ 0.559 µg/mL). Further, in [5], the Papp at 18 h, 500 µM was 8.1 ×10⁻⁶ cm/s.
Turning to `Cc1c(CN2CCN(C)CC2)cc(-c2ccc(Cl)cc2)n1-c1ccc(Cl)cc1`, in series [4], the outcome was inactive.
For `c1ccc2sc(CNC3CCCCCCC3)cc2c1`, the concentration in solution in series [3] (solubility at 24 h, 100 µM) was 73.5 µM (≈ 20.1 µg/mL). Further, the Ratio in series [10], in series [11], in series [12], in series [13], in series [14] and in series [15] was 5 throughout. Besides, the Ratio in series [16] and in series [17] was 5 throughout. In addition, in series [4], the outcome was inactive.
For the compound `CC(C)NCC(O)COc1cccc2ccccc12` (stereo not given) [PROPRANOLOL], the Papp at 18 h, 500 µM in [5] amounted to 11.9 ×10⁻⁶ cm/s.
As for `C[C@@H]1[C@H]2C[C@@H](C[C@H]1NC(=O)c1cc3c(F)cc(F)cc3[nH]1)C2(C)C`, in [1], the MIC90 came out at 0.012 µM (≈ 0.00399 µg/mL).
For the compound `O=C(NC1CCCCCCC1)c1cc2ccccc2[se]1`, the solubility at 24 h, 100 µM in series [3] was determined as 3.7 µM (≈ 1.24 µg/mL). For the same compound, the outcome in [4] was inactive.
`N#CC(C#N)=NNc1cccc(Cl)c1`: the result in series [18] was Active.
In series [3], `Brc1ccc2cc(CNC3CCCCCCC3)[nH]c2c1` returned a solubility at 24 h, 100 µM of 35.4 µM (≈ 11.9 µg/mL). Also, the Papp at 18 h, 500 µM in [5] turned out to be 13.4 ×10⁻⁶ cm/s.
The compound `Cc1cc(C)c2cc(CNC3CCCCCCC3)[nH]c2c1` had a solubility at 24 h, 100 µM in [3] of 70.1 µM (≈ 19.9 µg/mL). Further, the Papp at 18 h, 500 µM in series [5] turned out to be 18.4 ×10⁻⁶ cm/s. Moreover, in [1], the MIC90 worked out at 0.31 µM (≈ 0.0882 µg/mL).
`FC(F)(F)c1ccc2cc(CNC3CCCCCCC3)[nH]c2c1` came in with a solubility at 24 h, 100 µM in series [3] of 31 µM (≈ 10.1 µg/mL). In series [5], the Papp at 18 h, 500 µM was 13.4 ×10⁻⁶ cm/s. Moreover, the MIC50 in series [1] stood at 0.05 µM (≈ 0.0162 µg/mL). In addition, the MIC90 in series [1] came out at 0.13 µM (≈ 0.0422 µg/mL). In addition, the MBC in [2] was determined as 0.63 µM (≈ 0.204 µg/mL). Besides, in [6], the IC50 at 48 h turned out to be 22 µM. The selectivity ratio is 366 in [7] and 550 in series [8]. The same compound came in with a half-life at 200 µM in series [9] of 8.2 min. The Ratio in series [10], in [11], in series [12], in series [13], in series [14] and in series [15] was 5 throughout. For the same compound, the Ratio in series [16] and in [17] was 5 each time. Moreover, the outcome in series [4] was inactive.
Turning to `c1ccc2[nH]c(CNC3CCCCCCC3)cc2c1`, the solubility at 24 h, 100 µM in series [3] was 99.7 µM (≈ 25.6 µg/mL).
Take `O=C(NC1CCCCCCC1)c1cc2ccccc2[nH]1`: the concentration in solution in series [3] (solubility at 24 h, 100 µM) was 2.4 µM (≈ 0.649 µg/mL).
Take `O=C(NC1CCC2(CCCCC2)CC1)c1cc2c(F)cc(F)cc2[nH]1`: the MIC90 in series [1] was 0.003 µM (≈ 0.00104 µg/mL).

Source of the values: ChEMBL document CHEMBL5226308, “Amide-Amine Replacement in Indole-2-carboxamides Yields Potent Mycobactericidal Agents with Improved Water Solubility” (ACS Med Chem Lett, 2021).
